Laboratory results reported in patent publication US7247617B2, “Sixteen-member macrolide antiinfective agents” (Kosan Biosciences Incorporated, priority 2004, dated 2007).

Assays:
S. epidermidis = assay: Biological activity against bacterial strains: S. epidermidis; type: cell-based, Staphylococcus epidermidis; details: strain ATCC12228
E. faecalis = assay: Biological activity against bacterial strains: E. faecalis; type: cell-based, Enterococcus faecalis; details: strain ATCC51575
S. pneumoniae = assay: Biological activity against bacterial strains: S. pneumoniae; type: cell-based, Streptococcus pneumoniae; design: Biological Activity, S. pneumoniae ATCC6301 / Biological Activity, S. pneumoniae ATCC700671 / Biological Activity, S. pneumoniae ATCC700676* / Biological Activity, S. pneumoniae ATCC700677* / Biological Activity, S. pneumoniae ATCC700905* / Biological Activity, S. pneumoniae ATCC700906* / Biological Activity, S. pneumoniae ATCC49619: unit not given here; details: for Biological Activity, S. pneumoniae ATCC6301: strain ATCC6301; for Biological Activity, S. pneumoniae ATCC49619: strain ATCC49619; for Biological Activity, S. pneumoniae ATCC700671: strain ATCC700671; for Biological Activity, S. pneumoniae ATCC700676*: strain ATCC700676, macrolide resistant strain; for Biological Activity, S. pneumoniae ATCC700677*: strain ATCC700677, macrolide resistant strain; for Biological Activity, S. pneumoniae ATCC700905*: strain ATCC700905, macrolide resistant strain; for Biological Activity, S. pneumoniae ATCC700906*: strain ATCC700906, macrolide resistant strain
S. aureus = assay: Biological activity against bacterial strains: S. aureus; type: cell-based, Staphylococcus aureus; design: unit not given here; details: for Biological Activity, S. aureus ATCC6538p: strain ATCC6538p; for Biological Activity, S. aureus ATCC14154*: strain ATCC14154, macrolide resistant strain; for Biological Activity, S. aureus ATCC29213: strain ATCC29213; for Biological Activity, S. aureus ATCC33591*: strain ATCC33591, macrolide resistant strain; for Biological Activity, S. aureus ATCCBAA-39*: strain ATCCBAA-39, macrolide resistant strain; for Biological Activity, S. aureus ATCCBAA-44*: strain ATCCBAA-44, macrolide resistant strain

Structure (SMILES) | Biological Activity, S. epidermidis ATCC12228 (S. epidermidis) | Biological Activity, E. faecalis ATCC51575 (E. faecalis) | Biological Activity, S. pneumoniae ATCC6301 (S. pneumoniae) | Biological Activity, S. pneumoniae ATCC49619 (S. pneumoniae) | Biological Activity, S. pneumoniae ATCC700671 (S. pneumoniae) | Biological Activity, S. pneumoniae ATCC700676* (S. pneumoniae) | Biological Activity, S. pneumoniae ATCC700677* (S. pneumoniae) | Biological Activity, S. pneumoniae ATCC700905* (S. pneumoniae) | Biological Activity, S. pneumoniae ATCC700906* (S. pneumoniae) | Biological Activity, S. aureus ATCC6538p (S. aureus) | Biological Activity, S. aureus ATCC14154* (S. aureus) | Biological Activity, S. aureus ATCC29213 (S. aureus) | Biological Activity, S. aureus ATCC33591* (S. aureus) | Biological Activity, S. aureus ATCCBAA-39* (S. aureus) | Biological Activity, S. aureus ATCCBAA-44* (S. aureus)
CCC1OC(=O)CC(O)C(C)C(OC2OC(C)C(O)C(N(C)C)C2O)C(CCN2CC(C)CC(C)C2)CC(C)C(=NOCCCOc2ccc3ncccc3c2)C=CC(C)=CC1COC1OC(C)C(O)C(OC)C1OC (single isomer, unassigned) [Compound K] | 0.39 | >12.5 | 0.01 | 0.098 | 0.025 | 0.049 | 0.049 | 0.20 | >12.5 | 0.20 | 0.39 | 0.39 | >12.5 | >12.5 | >12.5
CC[C@H]1OC(=O)C[C@@H](O)[C@H](C)[C@@H](OC2OC(C)C(O)C(N(C)C)C2O)[C@@H](CC=O)C[C@@H](C)C(=N\OCc2ccc(F)cc2)/C=C/C(C)=C/C1CO (stereo partly drawn) [Compound IIc] | 1.56 | >12.5 | 0.2 | 0.2 | 0.39 | 0.2 | 3.12 | 0.39 | >12.5 | 0.78 | 1.56 | 1.56 | >12.5 | >12.5 | >12.5
CCC1OC(=O)CC(O)C(C)C(OC2OC(C)C(O)C(N(C)C)C2O)C(CCN2CC(C)CC(C)C2)CC(C)C(=NOCCCCOc2ccc3ncccc3c2)C=CC(C)=CC1COC1OC(C)C(O)C(OC)C1OC (single isomer, unassigned) [Compound M] | 1.56 | >12.5 | 0.01 | 0.01 | 0.01 | 1.56 | 6.25 | 1.56 | >12.5 | 0.78 | 1.56 | 1.56 | >12.5 | >12.5 | >12.5
CCC1OC(=O)CC(O)C(C)C(OC2OC(C)C(O)C(N(C)C)C2O)C(CC=O)CC(C)C(=NOCCCOc2ccc3ncccc3c2)C=CC(C)=CC1COC1OC(C)C(O)C(OC)C1OC (single isomer, unassigned) [Compound BB] | 0.39 | >12.5 | 0.025 | 0.049 | 0.049 | 0.049 | 0.025 | 0.025 | >12.5 | 0.2 | 0.78 | 0.39 | >12.5 | >12.5 | >12.5
CCC1OC(=O)CC(O)C(C)C(OC2OC(C)C(O)C(N(C)C)C2O)C(CC=O)CC(C)C(=NOCCCOc2ccc3ncccc3c2)C=CC(C)=CC1COC1OC(C)C(O)C(OC)C1OC (single isomer, unassigned) [Compound AA] | 0.78 | >12.5 | 0.025 | 6.25 | >12.5 | 0.049 | 6.25 | 6.25 | >12.5 | 0.39 | 0.78 | 0.78 | >12.5 | >12.5 | >12.5
CCC1OC(=O)CC(O)C(C)C(OC2OC(C)C(O)C(N(C)C)C2O)C(CC=O)CC(C)C(=NOCC=Cc2ccc3nccnc3c2)C=CC(C)=CC1CO (stereo not drawn) [Compound H] | 0.20 | >12.5 | 0.025 | 0.025 | 0.049 | 0.049 | >12.5 | 0.049 | >12.5 | 0.20 | 0.39 | 0.39 | >12.5 | >12.5 | >12.5
CO[C@@H]1[C@@H](OC2OC(C)C(O)C(N(C)C)C2O)[C@@H](CC=O)C[C@@H](C)C(=N/OCCCOc2ccc3ncccc3c2)/C=C/C=C/C[C@@H](C)OC(=O)C[C@H]1O (stereo partly drawn) [Compound HH] | 0.78 | >12.5 | 0.025 | 0.025 | 0.025 | 0.025 | 3.12 | 0.025 | >12.5 | 0.2 | 0.78 | 3.12 | >12.5 | >12.5 | >12.5
CCC1OC(=O)CC(O)C(C)C(OC2OC(C)C(O)C(N(C)C)C2O)C(CCN2CC(C)CC(C)C2)CC(C)C(=NOCCCOc2ccc3ncccc3c2)C=CC(C)=CC1COC1OC(C)C(O)C(OC)C1OC (single isomer, unassigned) [Compound L] | 0.20 | >12.5 | 0.01 | 0.025 | 0.01 | 0.049 | 0.025 | 0.098 | >12.5 | 0.20 | 0.20 | 0.20 | >12.5 | >12.5 | >12.5
